# Measurements taken from US20250092056A1, “URACIL DERIVATIVES HAVING VIRUS REPLICATION INHIBITORY ACTIVITY AND PHARMACEUTICAL COMPOSITION COMPRISING THE SAME” (Shionogi & Co., Ltd., priority 2022, published 2025).
# Like-named read-outs stand apart in the source and are kept apart here.
# Experiments:
# [1] = target: Recombinant SARS-CoV-2 3CL Protease (Severe acute respiratory syndrome coronavirus 2 (2019-nCoV) (SARS-CoV-2), UniProt P0DTD1); assay: biochemical; assay type: biochemical; conditions: 50% SARS-CoV-2 3CL protease inhibitory concentration; read-out: IC50
# SARS-CoV-2 = assay: Cytopathic effect (CPE) suppression effect confirmation test using HEK293T/ACE2-TMPRSS2 cells; assay type: cell-based; conditions: Severe acute respiratory syndrome coronavirus 2, HEK-293T
# [2] = 50% SARS-CoV-2 infected cell death inhibitory concentration, HEK293T/ACE2-TMPRSS2 cells, read-out: EC50
# [3] = 72 h, read-out: EC50 (50% SARS-CoV-2 infected cell death inhibitory concentration), HEK293T/ACE2-TMPRSS2 cells, CPE suppression, CellTiter-Glo 2.0 after 3 days culture
Structure (SMILES),IC50 [1],EC50 (SARS-CoV-2; [2]),EC50 (SARS-CoV-2; [3])
N#CCn1c(N2CC3(CCOC3)C2)c(C2=CCCCCC2)c(=O)n(-c2cncc(Cl)c2)c1=O [Compound I-227],< 0.01 µM,< 0.1 µM,–
Cc1cnnc(-n2c(=O)c(-c3ccc(F)c(Cl)c3)c(N3CC4(C3)CC(F)(F)C4)n(CC#N)c2=O)c1 [Compound I-228],< 0.01 µM,< 0.1 µM,–
N#CCn1c(N2CC3(C2)CC(F)(F)C3)c(-c2ccc(F)c(Cl)c2)c(=O)n(-c2cc(C(F)(F)F)cnn2)c1=O [Compound I-229],< 0.01 µM,< 0.1 µM,–
N#CCn1c(N2CC3(C2)CC(F)(F)C3)c(-c2ccc(F)c(Cl)c2)c(=O)n(-c2cncc(F)c2)c1=O [Compound I-231],< 0.01 µM,< 0.1 µM,–
N#CCn1c(N2CC(O)(c3ncccn3)C2)c(-c2ccc(F)c(Cl)c2)c(=O)n(-c2cncc(Cl)c2)c1=O [Compound I-232],0.00086 µM,–,0.00646 µM
N#CCn1c(N2CC(c3ncccn3)C2)c(-c2ccc(F)c(Cl)c2)c(=O)n(-c2cncc(Cl)c2)c1=O [Compound I-233],< 0.01 µM,< 0.1 µM,–
N#CCn1c(N2CC(O)(c3ncc(F)cn3)C2)c(-c2ccc(F)c(Cl)c2)c(=O)n(-c2cncc(Cl)c2)c1=O [Compound I-234],0.0012 µM,–,0.0066 µM
N#CCn1c(N2CC[C@H](C(=O)N3CC(F)(F)C3)C2)c(-c2ccc(F)c(Cl)c2)c(=O)n(-c2cncc(Cl)c2)c1=O [Compound I-235],< 0.01 µM,< 0.1 µM,–
N#CCn1c(N2CC[C@@H](C(=O)C3CC(F)(F)C3)C2)c(-c2ccc(F)c(Cl)c2)c(=O)n(-c2cncc(Cl)c2)c1=O [Compound I-236],< 0.01 µM,< 0.1 µM,–
N#CCn1c(N2CC(O)(c3cnccn3)C2)c(-c2ccc(F)c(Cl)c2)c(=O)n(-c2cncc(Cl)c2)c1=O [Compound I-237],< 0.01 µM,< 0.1 µM,–
N#CCn1c(N2CCCO2)c(-c2ccc(F)c(Cl)c2)c(=O)n(-c2cncc(Cl)c2)c1=O [Compound I-242],0.01 to 0.1 µM,< 0.1 µM,–
N#CCn1c(N2CCOC2=O)c(-c2ccc(F)c(Cl)c2)c(=O)n(-c2cncc(Cl)c2)c1=O [Compound I-243],> 0.1 µM,0.1 to 1 µM,–
CN1CCN(c2c(-c3ccc(F)c(Cl)c3)c(=O)n(-c3cncc(Cl)c3)c(=O)n2CC#N)C1=O [Compound I-244],0.01 to 0.1 µM,< 0.1 µM,–
N#CCn1c(OC2CC(F)(F)C2)c(-c2ccc(F)c(Cl)c2)c(=O)n(-c2cncc(Cl)c2)c1=O [Compound I-245],0.01 to 0.1 µM,< 0.1 µM,–
N#CCn1c(Oc2cncc(Cl)c2)c(-c2ccc(F)c(Cl)c2)c(=O)n(-c2cncc(Cl)c2)c1=O [Compound I-246],< 0.01 µM,0.1 to 1 µM,–
N#CCn1c(N2CC3(C2)CC(F)(F)C3)c(-c2ccc(F)c(Cl)c2)c(=O)n(-c2cncc(C#N)c2)c1=O [Compound I-247],< 0.01 µM,< 0.1 µM,–
Cc1cncc(-n2c(=O)c(-c3ccc(F)c(Cl)c3)c(C#CC3CC3)n(CC#N)c2=O)c1 [Compound I-248],< 0.01 µM,0.1 to 1 µM,–
N#CCn1c(N2CC(CO)C2)c(-c2ccc(F)c(Cl)c2)c(=O)n(-c2cncc(Cl)c2)c1=O [Compound I-249],0.00054 µM,–,0.0079 µM
N#CCn1c(N2CC(C(F)F)C2)c(-c2ccc(F)c(Cl)c2)c(=O)n(-c2cncc(Cl)c2)c1=O [Compound I-250],0.00054 µM,–,0.00331 µM
N#CCn1c(N2CCC2)c(-c2ccc(F)c(Cl)c2)c(=O)n(-c2cncc(Cl)c2)c1=O [Compound I-251],< 0.01 µM,< 0.1 µM,–
Cc1cnc(F)c(-n2c(=O)c(-c3ccc(F)c(Cl)c3)c(N3CC4(C3)CC(F)(F)C4)n(CC#N)c2=O)c1 [Compound I-255],< 0.01 µM,< 0.1 µM,–
N#CCn1c(N2CC(O)(c3nccs3)C2)c(-c2ccc(F)c(Cl)c2)c(=O)n(-c2cncc(Cl)c2)c1=O [Compound I-256],< 0.01 µM,< 0.1 µM,–
N#CCn1c(N2CC(OC(F)(F)F)C2)c(-c2ccc(F)c(Cl)c2)c(=O)n(-c2cncc(Cl)c2)c1=O [Compound I-257],0.00035 µM,–,0.00298 µM
N#CCn1c(N2CC3(C2)CC(F)(F)C3)c(-c2cncc(Cl)c2)c(=O)n(-c2cncc(Cl)c2)c1=O [Compound I-258],< 0.01 µM,< 0.1 µM,–
N#CCn1c(N2CC3(C2)CC(O)(c2ccccc2)C3)c(-c2ccc(F)c(Cl)c2)c(=O)n(-c2cncc(Cl)c2)c1=O [Compound I-259],0.00045 µM,–,0.00544 µM
COc1cncc(-n2c(=O)c(-c3ccc(F)c(Cl)c3)c(N3CC4(C3)CC(F)(F)C4)n(CC#N)c2=O)n1 [Compound I-260],< 0.01 µM,< 0.1 µM,–
N#CCn1c(N2CC(O)(c3ncccn3)C2)c(-c2ccc(F)c(Cl)c2)c(=O)n(-c2cncc(C(F)(F)F)c2)c1=O [Compound I-261],0.018 µM,–,0.0345 µM
